From ChEMBL document CHEMBL1201862, “PubChem BioAssay data set” (2004)
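Cultured in 96-well plates, cells were exposed to test compound for 48 hours across five concentrations. GI50 is the concentration that inhibits growth by half.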 Active and inactive are the calls of the source. Cut-off read from the data, not from the text of the source: active = GI50 up to about 1.1 µM and inactive = higher.

Assays:
Assay in all cases: growth of human tumour cells (NCI), 48 h
[1] = system: HCT-15
[2] = system: HT-29
[3] = system: TK-10
[4] = system: NCI/ADR-RES
[5] = system: K562
[6] = system: M14
[7] = system: 786-0
[8] = system: CCRF-CEM
[9] = system: IGROV-1
[10] = system: OVCAR-8
[11] = system: A498
[12] = system: HCC 2998
[13] = system: ACHN
[14] = system: OVCAR-4
[15] = system: CAKI-1
[16] = system: HOP-62
[17] = system: SK-MEL-5
[18] = system: NCI-H23
[19] = system: SNB-75
[20] = system: HCT-116
[21] = system: RXF 393
[22] = system: NCI-H460
[23] = system: EKVX
[24] = system: COLO 205
[25] = system: A549
[26] = system: OVCAR-5
[27] = system: SK-MEL-2
[28] = system: UACC-257
[29] = system: SNB-19
[30] = system: Hs-578T
[31] = system: MDA-MB-231
[32] = system: PC-3
[33] = system: SW-620
[34] = system: NCI-H522
[35] = system: MCF7
[36] = system: BT-549
[37] = system: DU-145
[38] = system: SF-268
[39] = system: SF-295
[40] = system: MDA-MB-435
[41] = system: SK-OV-3
[42] = system: OVCAR-3
[43] = system: UACC-62
[44] = system: UO-31
[45] = system: U-251
[46] = system: MOLT-4
[47] = system: HOP-92
[48] = system: MDA-N
[49] = system: Malme-3M
[50] = system: SK-MEL-28
[51] = system: KM12
[52] = system: RPMI-8226
[53] = system: NCI-H226
[54] = system: LOX IMVI
[55] = system: HL-60
[56] = system: SN12C
[57] = system: SR
[58] = system: SF-539

Q: Which GI50 [1] does the source give for `Cc1cc(-c2ccc[nH]2)on1` here?
A: Its GI50 is over 100 µM.

Q: What about the GI50 [2] of the same molecule?
A: Its GI50 is > 100 µM (inactive).

Q: What about the GI50 [3] of the same molecule?
A: The GI50 was > 100 µM (inactive).

Q: And the GI50 [4]?
A: The GI50 was > 100 µM (inactive).

Q: What about the GI50 [5] of the same molecule?
A: Its GI50 is > 100 µM (inactive).

Q: What about the GI50 [6] of the same molecule?
A: Its GI50 is > 100 µM (inactive).

Q: What about the GI50 [7] of the same molecule?
A: Its GI50 is > 100 µM (inactive).

Q: And the GI50 [8]?
A: The GI50 was > 100 µM (inactive).

Q: And the GI50 [9]?
A: The GI50 was > 100 µM (inactive).

Q: What about the GI50 [10] of the same molecule?
A: Its GI50 is > 100 µM (inactive).

Q: What about the GI50 [11] of the same molecule?
A: The GI50 was > 100 µM (inactive).

Q: What about the GI50 [12] of the same molecule?
A: The GI50 was > 100 µM (inactive).

Q: And the GI50 [13]?
A: The GI50 was > 100 µM (inactive).

Q: And the GI50 [14]?
A: Its GI50 is > 100 µM (inactive).

Q: And the GI50 [15]?
A: Its GI50 is > 100 µM (inactive).

Q: And the GI50 [16]?
A: The GI50 was > 100 µM (inactive).

Q: And the GI50 [17]?
A: The GI50 was > 100 µM (inactive).

Q: And the GI50 [18]?
A: Its GI50 is > 100 µM (inactive).

Q: What about the GI50 [19] of the same molecule?
A: Its GI50 is > 100 µM (inactive).

Q: What about the GI50 [20] of the same molecule?
A: Its GI50 is > 100 µM (inactive).

Q: What about the GI50 [21] of the same molecule?
A: The GI50 was > 100 µM (inactive).

Q: What about the GI50 [22] of the same molecule?
A: The GI50 was > 100 µM (inactive).

Q: And the GI50 [23]?
A: Its GI50 is > 100 µM (inactive).

Q: And the GI50 [24]?
A: The GI50 was > 100 µM (inactive).

Q: And the GI50 [25]?
A: The GI50 was > 100 µM (inactive).

Q: What about the GI50 [26] of the same molecule?
A: Its GI50 is > 100 µM (inactive).

Q: And the GI50 [27]?
A: The GI50 was > 100 µM (inactive).

Q: What about the GI50 [28] of the same molecule?
A: The GI50 was > 100 µM (inactive).

Q: And the GI50 [29]?
A: Its GI50 is > 100 µM (inactive).

Q: What about the GI50 [30] of the same molecule?
A: The GI50 was > 100 µM (inactive).

Q: What about the GI50 [31] of the same molecule?
A: Its GI50 is > 100 µM (inactive).

Q: What about the GI50 [32] of the same molecule?
A: The GI50 was > 100 µM (inactive).

Q: What about the GI50 [33] of the same molecule?
A: The GI50 was > 100 µM (inactive).

Q: What about the GI50 [34] of the same molecule?
A: The GI50 was > 100 µM (inactive).

Q: What about the GI50 [35] of the same molecule?
A: Its GI50 is > 100 µM (inactive).

Q: What about the GI50 [36] of the same molecule?
A: The GI50 was > 100 µM (inactive).

Q: And the GI50 [37]?
A: Its GI50 is > 100 µM (inactive).

Q: What about the GI50 [38] of the same molecule?
A: The GI50 was > 100 µM (inactive).

Q: And the GI50 [39]?
A: Its GI50 is > 100 µM (inactive).

Q: And the GI50 [40]?
A: The GI50 was > 100 µM (inactive).

Q: What about the GI50 [41] of the same molecule?
A: The GI50 was > 100 µM (inactive).

Q: What about the GI50 [42] of the same molecule?
A: The GI50 was > 100 µM (inactive).

Q: And the GI50 [43]?
A: Its GI50 is > 100 µM (inactive).

Q: What about the GI50 [44] of the same molecule?
A: The GI50 was > 100 µM (inactive).

Q: What about the GI50 [45] of the same molecule?
A: Its GI50 is > 100 µM (inactive).

Q: What about the GI50 [46] of the same molecule?
A: Its GI50 is > 100 µM (inactive).

Q: And the GI50 [47]?
A: Its GI50 is > 100 µM (inactive).

Q: And the GI50 [48]?
A: Its GI50 is > 100 µM (inactive).

Q: What about the GI50 [49] of the same molecule?
A: Its GI50 is > 100 µM (inactive).

Q: And the GI50 [50]?
A: The GI50 was > 100 µM (inactive).

Q: What about the GI50 [51] of the same molecule?
A: Its GI50 is > 100 µM (inactive).

Q: And the GI50 [52]?
A: Its GI50 is > 100 µM (inactive).

Q: What does the source list for `COc1cccc(N2C(=O)CSC2c2cc(OC)c(OC)c(OC)c2)c1` (stereo not drawn)?
A: GI50 [1]: 20 µM; GI50 [2]: 33.1 µM (inactive); GI50 [3]: > 100 µM (inactive); GI50 [4]: 26.5 µM (inactive); GI50 [5]: 25.9 µM (inactive); GI50 [6]: 27.7 µM (inactive); GI50 [7]: 28.9 µM (inactive); GI50 [8]: 19.1 µM (inactive); GI50 [9]: 44.6 µM (inactive); GI50 [10]: 36 µM (inactive); GI50 [11]: > 100 µM (inactive); GI50 [12]: 22.7 µM (inactive); GI50 [13]: 57.7 µM (inactive); GI50 [14]: 47.3 µM (inactive); GI50 [15]: 30.8 µM (inactive); GI50 [17]: 19.8 µM (inactive); GI50 [53]: 26.7 µM (inactive); GI50 [54]: 32.8 µM (inactive); GI50 [18]: 29.2 µM (inactive); GI50 [20]: 31.8 µM (inactive); GI50 [22]: 27.8 µM (inactive); GI50 [23]: 49.7 µM (inactive); GI50 [24]: 23 µM (inactive); GI50 [25]: 37.1 µM (inactive); GI50 [26]: 54.8 µM (inactive); GI50 [27]: > 100 µM (inactive); GI50 [28]: 20.9 µM (inactive); GI50 [55]: 31.7 µM (inactive); GI50 [29]: 23.1 µM (inactive); GI50 [56]: 44.1 µM (inactive); GI50 [30]: 48.2 µM (inactive); GI50 [31]: 69.7 µM (inactive); GI50 [32]: 55.1 µM (inactive); GI50 [33]: 39.7 µM (inactive); GI50 [34]: 26.4 µM (inactive); GI50 [35]: 19.4 µM (inactive); GI50 [36]: 22.1 µM (inactive); GI50 [57]: 5.75 µM (inactive); GI50 [37]: 12 µM (inactive); GI50 [38]: > 100 µM (inactive); GI50 [39]: 21.8 µM (inactive); GI50 [40]: 3.85 µM (inactive); GI50 [41]: 26.7 µM (inactive); GI50 [42]: 20.7 µM (inactive); GI50 [43]: 34.2 µM (inactive); GI50 [44]: 36.8 µM (inactive); GI50 [45]: 34.8 µM (inactive); GI50 [46]: 29.8 µM (inactive); GI50 [47]: > 100 µM (inactive); GI50 [48]: 3.95 µM (inactive); GI50 [50]: 62.2 µM (inactive); GI50 [58]: 24.5 µM (inactive); GI50 [51]: 12.2 µM (inactive); GI50 [52]: 29 µM (inactive)

Q: What does the source list for `COc1cccc(N2CCc3c(C)c(C#N)c4nc5ccccc5n4c32)c1`?
A: GI50 [1]: > 100 µM; GI50 [2]: > 100 µM (inactive); GI50 [3]: > 100 µM (inactive); GI50 [4]: > 100 µM (inactive); GI50 [5]: > 100 µM (inactive); GI50 [6]: > 100 µM (inactive); GI50 [7]: 58.3 µM (inactive); GI50 [8]: > 100 µM (inactive); GI50 [9]: > 100 µM (inactive); GI50 [10]: 41.4 µM (inactive); GI50 [11]: > 100 µM (inactive); GI50 [12]: > 100 µM (inactive); GI50 [13]: > 100 µM (inactive); GI50 [14]: > 100 µM (inactive); GI50 [16]: > 100 µM (inactive); GI50 [17]: > 100 µM (inactive); GI50 [53]: > 100 µM (inactive); GI50 [54]: > 100 µM (inactive); GI50 [18]: > 100 µM (inactive); GI50 [19]: 41.5 µM (inactive); GI50 [20]: > 100 µM (inactive); GI50 [21]: 45.1 µM (inactive); GI50 [22]: > 100 µM (inactive); GI50 [24]: > 100 µM (inactive); GI50 [25]: > 100 µM (inactive); GI50 [26]: > 100 µM (inactive); GI50 [27]: 94.8 µM (inactive); GI50 [28]: > 100 µM (inactive); GI50 [55]: > 100 µM (inactive); GI50 [29]: 39.3 µM (inactive); GI50 [56]: > 100 µM (inactive); GI50 [30]: 16.2 µM (inactive); GI50 [31]: 12.2 µM (inactive); GI50 [32]: > 100 µM (inactive); GI50 [33]: > 100 µM (inactive); GI50 [34]: 15.3 µM (inactive); GI50 [35]: > 100 µM (inactive); GI50 [36]: > 100 µM (inactive); GI50 [37]: > 100 µM (inactive); GI50 [38]: 43.7 µM (inactive); GI50 [39]: > 100 µM (inactive); GI50 [40]: > 100 µM (inactive); GI50 [41]: 48.1 µM (inactive); GI50 [42]: > 100 µM (inactive); GI50 [43]: > 100 µM (inactive); GI50 [44]: > 100 µM (inactive); GI50 [45]: 53.6 µM (inactive); GI50 [47]: 22.1 µM (inactive); GI50 [48]: > 100 µM (inactive); GI50 [49]: > 100 µM (inactive); GI50 [50]: > 100 µM (inactive); GI50 [58]: 45.7 µM (inactive)
